Results reported in EP2357172B1, “Process for the preparation of pimozide” (Institut Univ. de Ciència i Tecnologia, S.A., priority 2006, dated 2008).

Key:
[1] = tested on: rats; conditions: cited from earlier work
[2] = tested on: rats; test: Oral lethal dose (LD50) in rats, from safety data sheets; type: in vivo; conditions: glycerol formal compared with MIBK
Text: The data for MIBK were obtained from the International Chemical Safety Card published by "Instituto Nacional de Seguridad e Higiene en el Trabajo" (National Institute for Occupational Safety and Hygiene). The data for glycerol formal were obtained from the most recent manufacturer's standard safety data sheet.

[3] = cited from earlier work

| Molecule | LD50(oral-rats, g/kg) [1] [g/kg] | lethal dose in rats (ingestion) relative to MIBK [2] | Solubility in H2O (g/L) [3] |
| --- | --- | --- | --- |
| CC(=O)CC(C)C [MIBK, methylisobutylketone] | 2.1 |  |  |
| GLYCEROL FORMAL | 10 | five times higher | Miscible in all proportions |
